Measurements taken from ChEMBL document CHEMBL4219169, “Sulfoximines as potent RORγ inverse agonists” (Bioorg Med Chem Lett, 2018).
pIC50, pKd: −log10 of the molar value. In brackets after ≈: the same amount, converted by molar mass.

Key:
TK6 [1] = experiment: Genotoxicity in human TK6 cells incubated for 3 hrs in absence of aroclor-1254-induced rat S9 fraction followed by 27 hrs recovery period by Giemsa staining dependent optical microscopy based micronucleus test; type: toxicity, cell-based; conditions: tk6, 3 h
[2] = biological target: T1, Oxysterols receptor LXR-beta (Homo sapiens, UniProt P55055)
T1 sequence (P55055 whole entry): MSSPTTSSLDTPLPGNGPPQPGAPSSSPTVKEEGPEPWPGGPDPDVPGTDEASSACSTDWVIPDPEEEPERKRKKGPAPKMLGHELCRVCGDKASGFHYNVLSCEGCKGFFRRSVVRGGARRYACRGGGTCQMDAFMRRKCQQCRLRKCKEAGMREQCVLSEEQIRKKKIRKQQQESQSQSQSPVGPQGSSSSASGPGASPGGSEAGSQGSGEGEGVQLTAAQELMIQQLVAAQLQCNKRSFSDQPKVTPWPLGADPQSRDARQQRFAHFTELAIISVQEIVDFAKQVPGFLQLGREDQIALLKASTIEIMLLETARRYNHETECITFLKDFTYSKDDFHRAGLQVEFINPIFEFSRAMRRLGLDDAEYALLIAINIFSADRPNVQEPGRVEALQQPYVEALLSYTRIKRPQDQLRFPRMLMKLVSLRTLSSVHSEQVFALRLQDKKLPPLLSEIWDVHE
Description: Activity at LXRbeta (unknown origin) expressed in human HeLa-derived HG5LN cells transfected with the GAL4 DNA-binding domain fused to the LXRbeta ligand-binding domain assessed as inhibition of transcriptional activity after 18 hrs by luminescence-based luciferase reporter gene assay

[3] = biological target: T2, Retinoic acid receptor gamma (Homo sapiens, UniProt P13631); experiment: Inverse agonist activity at RARgamma (unknown origin) expressed in human HeLa-derived HG5LN cells transfected with the GAL4 DNA-binding domain fused to the RARgamma ligand-binding domain assessed as inhibition of transcriptional activity after 18 hrs by luminescence-based luciferase reporter gene assay; type: cell-based
T2 sequence (P13631 whole entry): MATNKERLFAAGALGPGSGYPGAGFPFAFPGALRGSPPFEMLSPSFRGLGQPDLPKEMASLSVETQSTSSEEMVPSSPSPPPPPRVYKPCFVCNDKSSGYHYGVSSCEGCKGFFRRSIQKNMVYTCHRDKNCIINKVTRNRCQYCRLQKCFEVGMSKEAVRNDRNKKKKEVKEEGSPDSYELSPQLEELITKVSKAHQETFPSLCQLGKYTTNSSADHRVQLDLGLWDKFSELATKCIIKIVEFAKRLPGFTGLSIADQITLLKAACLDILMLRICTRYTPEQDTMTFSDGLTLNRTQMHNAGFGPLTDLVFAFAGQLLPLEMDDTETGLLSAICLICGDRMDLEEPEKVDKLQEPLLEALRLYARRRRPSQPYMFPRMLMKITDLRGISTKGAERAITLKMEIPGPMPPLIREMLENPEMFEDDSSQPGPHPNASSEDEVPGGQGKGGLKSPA

Salmonella typhimurium = experiment: Genotoxicity in Salmonella typhimurium TA100 in absence of aroclor-1254-induced rat S9 fraction by Ames test; type: toxicity, organism-based; conditions: salmonella enterica subsp. enterica serovar typhimurium
[4] = Solubility of the compound in PG/EtOH96 (3/7) solution incubated for 24 hrs by UV spectrometry; type: physicochemical
TK6 [5] = experiment: Genotoxicity in human-derived p53-competent TK6 cells expressing GADD45a-dependent green fluorescent protein assessed as decrease in cell viability after 48 hrs in presence of Sprague-Dawley rat S9 fraction by FACS analysis; type: toxicity, cell-based; conditions: s9, 48 h

pKd [2]: < 5.00
pIC50 [3]: < 5.00
solubility at 24 h [4]: 31 mM (≈ 15.8 mg/mL)
Compound: CCc1ccc(N(CC(C)C)S(=O)(=O)c2ccc(OCC3CCOCC3)c([S@@](C)(=N)=O)c2)cc1
Activity (TK6 [1]): Non-Toxic
Activity (Salmonella typhimurium): Non-Toxic
Activity (TK6 [5]): Non-Toxic
